Experimental findings from patent US20060069152A1, “Crystalline mycophenolate sodium” (priority 2004, published 2006) are described below.

Series [1] is described as follows: Crystal form transformation by heating in an oven at atmospheric pressure, XRD before and after. The class given is physicochemical. The conditions noted are these: for Crystal form after heating (XRD): 30 min., atmospheric pressure. Here is the method: Representatives of all monosodium and disodium mycophenolate crystal forms, M1, M2, M1±M3, D1 and D1±D2 were heated in an oven at atmospheric pressure at 130° C. and 170° C. for 30 minutes. The samples were analyzed by XRD before and after heating.
(§1) ARL X-ray powder diffractometer model X′TRA-030, Peltier detector, round standard aluminum sample holder with round zero background quartz plate was used. Scanning parameters: Range: 2-40 deg. 2 θ, continuous Scan, Rate: 3 deg./min. The accuracy of peak positions is defined as ±/−0.2 degrees due to experimental differences like instrumentations, sample preparations etc.
200 mg of a mixture of Forms M1±M3 as identified by XRD, was put into an oven in a glass weighing bottle at 170° C. for 0.5 h. Then it was put into a desiccator and allowed to cool to room temperature. […] Transformation of M2 to M1, M3 to M1 and D1 to D2 by water vapors absorption

Series [2] can be described thus: Hygroscopicity: crystal forms exposed to different levels of humidity for one week, then analysed by TGA and XRD. The conditions noted are these: for LOD(%): one week, TGA. The class given is physicochemical. How it is done:
The hygroscopicity of monosodium mycophenolate crystal forms M1, M2, M3 and disodium mycophenolate crystal forms D1 and D1±D2 were also investigated. Form M1, M2, M3, D1 and D1±D2 were exposed to different level of humidity for one week and after equilibrium they were analysed by TGA and XRD for water content and crystal structure. Table 5 summarizes the results:
as §1
• TGA/SDTA 851^e, Mettler Toledo, Sample weight 7-15 mg. • Heating rate: 10° C./min., In N2 stream: flow rate=50 ml/min • Scan range: 30-250° C. Microscope
200 mg of each of the following samples: crystal Form M2, crystal Form M3 and crystal Form D1 were put at room temperature into a hygroscopicity chamber containing 100% relative humidity for one week. After one week they were measured again by XRD to determine their crystal forms.

Like-named read-outs stand apart in the source and are kept apart here.

In the case of `COc1c(C)c2c(c([O-])c1C/C=C(\C)CCC(=O)[O-])C(=O)OC2.[Na+].[Na+]` [Form D1, disodium mycophenolate], the “relative stability of the form at high temperature” value in series [1] is given as “the most stable forms at high temperature”. Besides, the “LOD(%)” value in series [2] (40% RH, listed as D1) is on record as 2.17%; in series [2] (60% RH), 11.64%; in series [2] (80% RH, listed as D1), 17.20%; in series [2] (100% RH, listed as D1), 31.87%.
Take `COc1c(C)c2c(c([O-])c1C/C=C(\C)CCC(=O)[O-])C(=O)OC2.[Na+].[Na+]` [Form D2, disodium mycophenolate]: the “relative stability of the form at high relative humidity” value in series [2] (room temperature, high relative humidity) was “the most stable form at room temperature, at high relative humidity”.
Regarding `COc1c(C)c2c(c([O-])c1C/C=C(\C)CCC(=O)[O-])C(=O)OC2.[Na+].[Na+]` [D1 + D2, disodium mycophenolate], the “LOD(%)” value amounted to 10.2% in series [2] (20% RH), 10.3% in series [2] (40% RH), 16.9% in series [2] (80% RH) and 42.1% in series [2] (100% RH).
Turning to `COc1c(C)c2c(c([O-])c1C/C=C(\C)CCC(=O)[O-])C(=O)OC2.[Na+].[Na+]` [disodium mycophenolate], the equilibrium water content result in series [2] (after humidity exposure) is “about 17%”.
On to `COc1c(C)c2c(c(O)c1C/C=C(\C)CCC(=O)O)C(=O)OC2` [Form M1, mycophenolate sodium], for which the “relative stability of the form at high relative humidity” value in series [2] is “the most stable form at room temperature, at high relative humidity”.
Regarding `COc1c(C)c2c(c(O)c1C/C=C(\C)CCC(=O)[O-])C(=O)OC2.[Na+]` [M1 + M3, mycophenolate sodium], the “Crystal form after heating (XRD)” value in series [1] (130° C.) is on record as “M3 > Ml”; in series [1] (170° C.), “Form M2”.
`COc1c(C)c2c(c(O)c1C/C=C(\C)CCC(=O)O)C(=O)OC2` [Form M2, mycophenolate sodium]: in series [1] (heating at 130° C. and 170° C.), the “relative stability of the form at high temperature” value is given as “the most stable forms at high temperature”.
